From patent US6355799B1, “Substituted benzene compounds, process for their preparation, and herbicidal and defoliant compositions containing them” (ISK Americas Incorporated, priority 1997, dated 2002)

Columns and labels:
Format in all cases: in vivo
[1] = system: redroot pigweed (Amaranthus retroflexus, AMARE); experiment: Pre-emerge test, greenhouse herbicide activity screening; settings: pre-emerge, 14 days after application, rating scale 0-100
In short: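 Sandy loam pots; pre-emerge: sown 1 d pre-spray, surface-watered after, then bottom-watered. Post-emerge: sown 8–21 d before, 2–3 leaf stage, + 0.25% v/v NIS, bottom-watered. Acetone, 187 l/ha track spray, 15–1000 g ai/ha. 0–100 injury score, day 14.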

[2] = system: barnyardgrass (Echinochloa crus-galli, ECHCG); experiment: as above; settings: pre-emerge, 14 days after application, rating scale 0-100
In short: (§1)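 Herbicidal damage is scored 0 (none) to 100 (complete plant death) two weeks after a simulated field spray. Rates span 15–1000 g ai/ha, delivered in acetone at 187 l/ha. For post-emergence treatments, plants have 2–3 leaves and the spray carries 0.25% v/v non-ionic surfactant.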

[3] = system: green foxtail (Setaria viridis, SETVI); experiment: as above; settings: pre-emerge, 14 days after application, rating scale 0-100
In short: as §1

[4] = system: ivyleaf morningglory (Ipomoea hederacea, IPOHE); experiment: as above; settings: pre-emerge, 14 days after application, rating scale 0-100
In short: as §1

[5] = system: johnsongrass (Sorghum halepense, SORHA); experiment: as above; settings: pre-emerge, 14 days after application, rating scale 0-100
In short: as §1

[6] = system: lambsquarters (Chenopodium album, CHEAL); experiment: as above; settings: pre-emerge, 14 days after application, rating scale 0-100
In short: as §1

[7] = system: large crabgrass (Digitaria sanguinalis, DIGSA); experiment: as above; settings: pre-emerge, 14 days after application, rating scale 0-100
In short: as §1

[8] = system: sicklepod (Cassia obtusifolia, CASOB); experiment: as above; settings: pre-emerge, 14 days after application, rating scale 0-100
In short: as §1

[9] = system: velvetleaf (Abutilon theophrasti, ABUTH); experiment: as above; settings: pre-emerge, 14 days after application, rating scale 0-100
In short: as §1

[10] = system: field corn (Zea mays L., var. Dekalb 535, CORN); experiment: Pre-emerge test, crop safety; settings: pre-emerge, 14 days after application, rating scale 0-100
In short: (§2)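 Rating: 0–100 visual injury, 14 DAA. Application: acetone, 187 l/ha, 15–1000 g ai/ha, flat-fan track sprayer with nozzle 40–45 cm above soil or canopy. Post-emerge runs used 0.25% v/v surfactant on 2–3 leaf plants.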

[11] = system: upland rice (Oryza sp., var. Tebonnet, RICE); experiment: Pre-emerge test, crop safety; settings: pre-emerge, 14 days after application, rating scale 0-100
In short: as §2

[12] = system: barnyardgrass (Echinochloa crus-galli, ECHCG); experiment: Post-emerge test, greenhouse herbicide activity screening; settings: post-emerge, 14 days after application, rating scale 0-100
In short: as §2

[13] = system: green foxtail (Setaria viridis, SETVI); experiment: as above; settings: post-emerge, 14 days after application, rating scale 0-100
In short: as §2

[14] = system: ivyleaf morningglory (Ipomoea hederacea, IPOHE); experiment: as above; settings: post-emerge, 14 days after application, rating scale 0-100
In short: as §2

[15] = system: johnsongrass (Sorghum halepense, SORHA); experiment: as above; settings: post-emerge, 14 days after application, rating scale 0-100
In short: as §2

[16] = system: lambsquarters (Chenopodium album, CHEAL); experiment: as above; settings: post-emerge, 14 days after application, rating scale 0-100
In short: as §2

[17] = system: large crabgrass (Digitaria sanguinalis, DIGSA); experiment: as above; settings: post-emerge, 14 days after application, rating scale 0-100
In short: as §2

[18] = system: redroot pigweed (Amaranthus retroflexus, AMARE); experiment: as above; settings: post-emerge, 14 days after application
In short: as §2

[19] = system: sicklepod (Cassia obtusifolia, CASOB); experiment: as above; settings: post-emerge, 14 days after application, rating scale 0-100
In short: as §2

[20] = system: velvetleaf (Abutilon theophrasti, ABUTH); experiment: as above; settings: post-emerge, 14 days after application, rating scale 0-100
In short: as §2

[21] = system: field corn (Zea mays L., var. Dekalb 535, CORN); experiment: Post-emerge test, crop safety; settings: post-emerge, 14 days after application, rating scale 0-100
In short: as §1

[22] = system: upland rice (Oryza sp., var. Tebonnet, RICE); experiment: Post-emerge test, crop safety; settings: post-emerge, 14 days after application, rating scale 0-100
In short: as §1

[23] = 63 g ai/ha, rating scale 0-100 (0 no damage, 100 complete death)
[24] = 250 g ai/ha, rating scale 0-100

COc1cc(Cl)cc(Cl)c1-n1c(=O)cc(C(F)(F)F)n(C)c1=O [16-2]
phytotoxicity rating AMARE ([1]; 63 g ai/ha): 40 | phytotoxicity rating AMARE ([1]; 250 g ai/ha): 100 | phytotoxicity rating ECHCG ([2]; 63 g ai/ha): 0 | phytotoxicity rating ECHCG ([2]; 250 g ai/ha): 10 | phytotoxicity rating SETVI ([3]; 63 g ai/ha): 10 | phytotoxicity rating SETVI ([3]; 250 g ai/ha): 60 | phytotoxicity rating IPOHE ([4]; 63 g ai/ha): 10 | phytotoxicity rating IPOHE ([4]; 250 g ai/ha): 50 | phytotoxicity rating SORHA ([5]; 63 g ai/ha): 0 | phytotoxicity rating SORHA ([5]; 250 g ai/ha): 30 | phytotoxicity rating CHEAL ([6]; 63 g ai/ha): 80 | phytotoxicity rating CHEAL ([6]; 250 g ai/ha): 100 | phytotoxicity rating DIGSA ([7]; 63 g ai/ha): 0 | phytotoxicity rating DIGSA ([7]; 250 g ai/ha): 50 | phytotoxicity rating CASOB ([8]; 63 g ai/ha): 0 | phytotoxicity rating CASOB ([8]; 250 g ai/ha): 60 | phytotoxicity rating ABUTH ([9]; 63 g ai/ha): 75 | phytotoxicity rating ABUTH ([9]; 250 g ai/ha): 100 | phytotoxicity rating CORN ([10]; 63 g ai/ha): 0 | phytotoxicity rating CORN ([10]; 250 g ai/ha): 0 | phytotoxicity rating RICE ([11]; 63 g ai/ha): 0 | phytotoxicity rating RICE ([11]; 250 g ai/ha): 0 | Post-emerge Herbicidal Activity ECHCG (phytotoxicity rating) ([12]; 63 g ai/ha): 0 | Post-emerge Herbicidal Activity ECHCG (phytotoxicity rating) ([12]; 250 g ai/ha): 0 | Post-emerge Herbicidal Activity SETVI (phytotoxicity rating) ([13]; 63 g ai/ha): 0 | Post-emerge Herbicidal Activity SETVI (phytotoxicity rating) ([13]; 250 g ai/ha): 0 | Post-emerge Herbicidal Activity IPOHE (phytotoxicity rating) ([14]; 63 g ai/ha): 0 | Post-emerge Herbicidal Activity IPOHE (phytotoxicity rating) ([14]; 250 g ai/ha): 0 | Post-emerge Herbicidal Activity SORHA (phytotoxicity rating) ([15]; 63 g ai/ha): 0 | Post-emerge Herbicidal Activity SORHA (phytotoxicity rating) ([15]; 250 g ai/ha): 0 | Post-emerge Herbicidal Activity CHEAL (phytotoxicity rating) ([16]; 63 g ai/ha): 30 | Post-emerge Herbicidal Activity CHEAL (phytotoxicity rating) ([16]; 250 g ai/ha): 70 | Post-emerge Herbicidal Activity DIGSA (phytotoxicity rating) ([17]; 63 g ai/ha): 0 | Post-emerge Herbicidal Activity DIGSA (phytotoxicity rating) ([17]; 250 g ai/ha): 0 | Post-emerge Herbicidal Activity AMARE (phytotoxicity rating) [18, 23]: 60 | Post-emerge Herbicidal Activity AMARE (phytotoxicity rating) [18, 24]: 60 | Post-emerge Herbicidal Activity CASOB (phytotoxicity rating) ([19]; 63 g ai/ha): 0 | Post-emerge Herbicidal Activity CASOB (phytotoxicity rating) ([19]; 250 g ai/ha): 10 | Post-emerge Herbicidal Activity ABUTH (phytotoxicity rating) ([20]; 63 g ai/ha): 40 | Post-emerge Herbicidal Activity ABUTH (phytotoxicity rating) ([20]; 250 g ai/ha): 70 | Post-emerge Herbicidal Activity CORN (crop damage rating) ([21]; 63 g ai/ha): 0 | Post-emerge Herbicidal Activity CORN (crop damage rating) ([21]; 250 g ai/ha): 10 | Post-emerge Herbicidal Activity RICE (crop damage rating) ([22]; 63 g ai/ha): 0 | Post-emerge Herbicidal Activity RICE (crop damage rating) ([22]; 250 g ai/ha): 20

COc1c(Cl)cc(F)c(-n2c(=O)cc(C(F)(F)F)n(C)c2=O)c1SC(C)C [17-2]
phytotoxicity rating AMARE ([1]; 63 g ai/ha): 30 | phytotoxicity rating AMARE ([1]; 250 g ai/ha): 60 | phytotoxicity rating ECHCG ([2]; 63 g ai/ha): 0 | phytotoxicity rating ECHCG ([2]; 250 g ai/ha): 0 | phytotoxicity rating SETVI ([3]; 63 g ai/ha): 0 | phytotoxicity rating SETVI ([3]; 250 g ai/ha): 0 | phytotoxicity rating IPOHE ([4]; 63 g ai/ha): 0 | phytotoxicity rating IPOHE ([4]; 250 g ai/ha): 0 | phytotoxicity rating SORHA ([5]; 63 g ai/ha): 0 | phytotoxicity rating SORHA ([5]; 250 g ai/ha): 0 | phytotoxicity rating CHEAL ([6]; 63 g ai/ha): 60 | phytotoxicity rating CHEAL ([6]; 250 g ai/ha): 90 | phytotoxicity rating DIGSA ([7]; 63 g ai/ha): 0 | phytotoxicity rating DIGSA ([7]; 250 g ai/ha): 0 | phytotoxicity rating CASOB ([8]; 63 g ai/ha): 0 | phytotoxicity rating CASOB ([8]; 250 g ai/ha): 0 | phytotoxicity rating ABUTH ([9]; 63 g ai/ha): 0 | phytotoxicity rating ABUTH ([9]; 250 g ai/ha): 20 | phytotoxicity rating CORN ([10]; 63 g ai/ha): 0 | phytotoxicity rating CORN ([10]; 250 g ai/ha): 0 | phytotoxicity rating RICE ([11]; 63 g ai/ha): 0 | phytotoxicity rating RICE ([11]; 250 g ai/ha): 0 | Post-emerge Herbicidal Activity ECHCG (phytotoxicity rating) ([12]; 63 g ai/ha): 0 | Post-emerge Herbicidal Activity ECHCG (phytotoxicity rating) ([12]; 250 g ai/ha): 0 | Post-emerge Herbicidal Activity SETVI (phytotoxicity rating) ([13]; 63 g ai/ha): 0 | Post-emerge Herbicidal Activity SETVI (phytotoxicity rating) ([13]; 250 g ai/ha): 0 | Post-emerge Herbicidal Activity IPOHE (phytotoxicity rating) ([14]; 63 g ai/ha): 0 | Post-emerge Herbicidal Activity IPOHE (phytotoxicity rating) ([14]; 250 g ai/ha): 20 | Post-emerge Herbicidal Activity SORHA (phytotoxicity rating) ([15]; 63 g ai/ha): 0 | Post-emerge Herbicidal Activity SORHA (phytotoxicity rating) ([15]; 250 g ai/ha): 0 | Post-emerge Herbicidal Activity CHEAL (phytotoxicity rating) ([16]; 63 g ai/ha): 0 | Post-emerge Herbicidal Activity CHEAL (phytotoxicity rating) ([16]; 250 g ai/ha): 40 | Post-emerge Herbicidal Activity DIGSA (phytotoxicity rating) ([17]; 63 g ai/ha): 0 | Post-emerge Herbicidal Activity DIGSA (phytotoxicity rating) ([17]; 250 g ai/ha): 0 | Post-emerge Herbicidal Activity AMARE (phytotoxicity rating) [18, 23]: 0 | Post-emerge Herbicidal Activity AMARE (phytotoxicity rating) [18, 24]: 30 | Post-emerge Herbicidal Activity CASOB (phytotoxicity rating) ([19]; 63 g ai/ha): 0 | Post-emerge Herbicidal Activity CASOB (phytotoxicity rating) ([19]; 250 g ai/ha): 10 | Post-emerge Herbicidal Activity ABUTH (phytotoxicity rating) ([20]; 63 g ai/ha): 0 | Post-emerge Herbicidal Activity ABUTH (phytotoxicity rating) ([20]; 250 g ai/ha): 50 | Post-emerge Herbicidal Activity CORN (crop damage rating) ([21]; 63 g ai/ha): 0 | Post-emerge Herbicidal Activity CORN (crop damage rating) ([21]; 250 g ai/ha): 0 | Post-emerge Herbicidal Activity RICE (crop damage rating) ([22]; 63 g ai/ha): 0 | Post-emerge Herbicidal Activity RICE (crop damage rating) ([22]; 250 g ai/ha): 0
